Measured values taken from patent US20230382944A1, “NOVEL COCRYSTALS OF DEXAMETHASONE” (Versitech Limited, priority 2022, published 2023).

Legend:
Assay type in all cases: physicochemical
[1] = Stability study: drug assay by HPLC and PXRD before and after storage at 25° C./75% RH; conditions: storage 25° C./75% RH; for % Difference (Day 0-Day 30): Day 0 vs Day 30
Experimental: (§1) The mobile phase consisted of a mixture of methanol and water (65:35, v/v). A 30 μL aliquot of each sample solution was injected onto the column with a flow rate of 1 mL/min.
The samples before and after the storage were collected for PXRD analysis.

[2] = Particle size distribution measurement by laser diffraction; conditions: sieved below 63 μm, n = 3; for Span: (D90-D10)/D50
Experimental: The particle size and size distribution of the powders was determined using laser diffraction equipment, Mastersizer 3000 (Malvern Instruments Ltd, Worcestershire, UK) with Aero S dry powder disperser. […] The particle size distribution was calculated from the light scattering pattern using Mie theory. Particle size at 10% (D10), 50% (D50), 90% (D90) of the volume distribution were calculated automatically using the Mastersizer 3000 software […]. Span was calculated as (D90-D10)/D50. All the samples were measured in triplicate.

[3] = In-vitro drug release study for nasal delivery in pH 5.5 simulated nasal fluid; conditions: for IDR ratio of DEX cocrystals to DEX: pH 5.5 SNF, estimated by ratio of the slope with sphere assumption; for release in SNF relative to raw DEX (fold faster) / dissolution relative to raw DEX (fold faster): pH 5.5 simulated nasal fluid; for release in SNF relative to raw DEX (fold faster): at 120 min, particle size below 63 μm; for dissolution relative to raw DEX (fold faster): time point not stated
Experimental: as §1
The solution was stirred at 50 rpm on a magnetic stirrer. The dissolution medium and temperature were selected to mimic the physiological condition in the nasal cavity^35, 36. At designated times of 5, 10, 15, 20, 30, 45, 60, 90, and 120 min, 1 mL of the dissolution medium was withdrawn and replaced with an equal volume of fresh medium. The sample solution was filtered through 0.45 μm nylon syringe filters and assayed for drug content by HPLC. The intrinsic dissolution rate (IDR) is determined by the following equation: IDR=(dm/dt)max/A, where (dm/dt)max is the slope of the initial linear region of the cumulative dissolution curve until 10% of drug is dissolved, and A is the specific surface area of the dissolution sample. The following assumptions were made: (i) spherical particles, (ii) constant particle size, and (iii) constant number of particles during the initial phase of the dissolution experiment under sink condition. With the assumptions, the particle size distribution data collected by laser diffractometry is used for the particle surface area (SAparticle) calculation. The total number of particles (n) subject to dissolution is calculated by Vbulk/Vparticle, where Vparticle is the volume of each primary particle, and Vbulk is the volume of compound added to the dissolution medium. The total surface area of all particles added to the dissolution medium is thus calculated through nSAparticle. Finally, the specific surface area (A, m^2/g) defined as the total surface area of a material per unit of mass could be obtained.

[4] = In-vitro aerosol performance evaluation with Next Generation Impactor; conditions: NGI; for FPF: 90 L/min, particles <5 μm vs recovered dose
Experimental: The spray dryer is equipped with a Buchi B-296 Dehumidifier and B-295 Inert Loop and a spray nozzle tip diameter of 0.7 mm with nitrogen as the atomization gas. The formulations were prepared according to the processing parameters listed in Table 6, above, with a rate of aspirations fixed at 100% (approximately 35 m^3/h), resulting in an outlet temperature of about 44° C.
A thin layer of silicon grease (Slipicone; DC Products, Waverley, VIC, Australia) coated onto the impactor stages minimizes particle bounce. […] Precise amounts of methanol were used for rinsing DEX and RES in all stages. The solutions were subsequently filtered using a 0.45 μm nylon syringe filters and the solutions assayed by HPLC. The recovered dose, fine particle fraction (FPF), mass median aerodynamic diameter (MMAD), and geometric standard deviation (GSD) were calculated. The FPF is the mass fraction of the particles <5 μm with respect to the recovered dose. The recovered dose was defined as the sum of powder mass assayed on all the parts.

[5] = spray-dried 1:1 from methanol, flow rate 90 L/min

| Structure (SMILES) | % of DEX Remaining (n = 3) ([1]; Day 0) [%] | % Difference (Day 0-Day 30) [1] [%] | % of DEX Remaining (n = 3) ([1]; Day 7) [%] | % of DEX Remaining (n = 3) ([1]; Day 30) [%] | Volumetric size D10 [2] [μm] | Volumetric size D50 [2] [μm] | Span [2] | IDR ratio of DEX cocrystals to DEX [3] | release in SNF relative to raw DEX (fold faster) [3] [fold] | dissolution relative to raw DEX (fold faster) [3] [fold] | Volumetric size D90 [2] [μm] | FPF ([4]; spray-dried 1:1 from methanol) [% w/w] | FPF ([4]; spray-dried 1:1 from methanol, listed as spray dried cocrystal formulation) [% w/w] | GSD [4, 5] [μm] | MMAD [4, 5] [μm] | MMAD ([4]; spray-dried 1:1 from methanol, flow rate 90 L/min, listed as spray dried cocrystal formulation) [μm] | aerosolized powders deposited on stages 3-6 ([4]; spray-dried, aerodynamic diameters 3.61 to 0.76 μm) [%] |
| --- | --- | --- | --- | --- | --- | --- | --- | --- | --- | --- | --- | --- | --- | --- | --- | --- | --- |
| C[C@@H]1C[C@H]2[C@@H]3CCC4=CC(=O)C=C[C@]4(C)[C@@]3(F)[C@@H](O)C[C@]2(C)[C@@]1(O)C(=O)CO [DEX, 9-fluoro-11β,17,21-trihydroxy-16α-methylpregna-1,4-diene-3,20-dione, reference compound] | 98.77 ± 2.97 | 4.27 ± 5.14 | 97.23 ± 4.27 | 94.50 ± 3.00 | 0.93 ± 0.16 | 1.52 ± 0.50 | 3.15 ± 0.46 | – | – | – | – | – | – | – | – | – | – |
| CC1CC2C3CCC4=CC(=O)C=CC4(C)C3(F)C(O)CC2(C)C1(O)C(=O)CO.Oc1ccccc1O (centres unmarked) [DEX-CAT] | 97.83 ± 2.32 | 2.38 ± 5.49 | 96.73 ± 4.72 | 95.45 ± 3.35 | 8.49 ± 1.76 | 24.87 ± 6.75 | 5.14 ± 0.28 | 76.86 | 2.4 | 3 | 49.27 ± 6.42 | – | – | – | – | – | – |
| CC1CC2C3CCC4=CC(=O)C=CC4(C)C3(F)C(O)CC2(C)C1(O)C(=O)CO.Oc1cccc(O)c1 (centres unmarked) [DEX-RES] | 99.65 ± 2.58 | 4.50 ± 4.07 | 97.18 ± 3.87 | 95.15 ± 3.17 | 4.46 ± 1.93 | 12.0 ± 0.42 | 7.69 ± 0.93 | 48.29 | 2.4 | 3 | 35.03 ± 8.92 | 35.43 | 35.43±4.97 | 2.30 | 2.96 | 2.96±0.49 | 30.26 |
